Results on five compounds are retold here after patent publication US8592367B2, “Nodule specific medicago peptides having antimicrobial activity and pharmaceutical compositions containing the same” (priority 2009, dated 2013).

One test has as its system Candida crusei. As to the kind of experiment: Antifungal activity in 96-well microtiter plates. In kind it is cell-based. The conditions noted are these: 24 h. Further details: key: +++: high sensitivity, no hyphal growth; ++: medium sensitivity; +: low sensitivity; −: no effect.
For test [1], the system named is Curtobacterium, flaccumfaciens. As to the kind of experiment: PI staining, broad spectrum activity. The test is classed as cell-based. Conditions: 50 μg/ml.
In test [2] the test system is Clavibacter michigense. As to the kind of experiment: CFU determination, broad spectrum activity. In kind it is cell-based. The conditions noted are these: 50 μg/ml, untreated 10^9.
Test [3] deals with Bacillus subtilis. As to the kind of experiment: CFU determination, broad spectrum activity. In kind it is cell-based. Conditions: 50 μg/ml, untreated 10^6.
Test [4] deals with Pseudomonas syringae pv tomato DC3000. Briefly: CFU determination, broad spectrum activity. In kind it is cell-based. Conditions: 50 μg/ml, Pseudomonas syringae pv tomato DC3000, untreated 10^7.
The subject of another test is Fusarium graminearum. The test is classed as cell-based. On the set-up: key: +++: high sensitivity, no hyphal growth; ++: medium sensitivity; +: low sensitivity; −: no effect. The conditions noted are these: 24 h.
Test [5] relates to Clavibacter michigense. As to the kind of experiment: PI staining, broad spectrum activity. In kind it is cell-based. Conditions: 50 μg/ml.
A further test relates to Aspergillus niger. Briefly: Antifungal activity in 96-well microtiter plates. The test is classed as cell-based. On the set-up: key: +++: high sensitivity, no hyphal growth; ++: medium sensitivity; +: low sensitivity; −: no effect. Conditions: 24 h.
Test [6] concerns Xanthomonas 2880. As to the kind of experiment: CFU determination, broad spectrum activity. Conditions: 50 μg/ml, Xanthomonas 2880, untreated 10^7. In kind it is cell-based.
Test [7] deals with Xanthomonas 2880. As to the kind of experiment: PI staining, broad spectrum activity. The test is classed as cell-based. The conditions noted are these: 50 μg/ml.
The subject of test [8] is Staphylococcus aureus. Briefly: CFU determination, broad spectrum activity. Conditions: 50 μg/ml, untreated 10^6. The test is classed as cell-based.
The test system of test [9] is Curtobacterium, flaccumfaciens. As to the kind of experiment: CFU determination, broad spectrum activity. In kind it is cell-based. Conditions: 50 μg/ml, untreated 10^9.
Test [10] deals with Sinorhizobium meliloti AK631. Briefly: PI staining of Sinorhizobium meliloti. The conditions noted are these: 50 μg/ml; for PI staining (PI uptake): FIG. 2A; for PI: Sinorhizobium meliloti (AK631).
Test [11] deals with Staphylococcus aureus. As to the kind of experiment: PI staining, broad spectrum activity. The test is classed as cell-based. Conditions: 50 μg/ml.
The test system of test [12] is Bacillus subtilis. Briefly: PI staining, broad spectrum activity. In kind it is cell-based. The conditions noted are these: 50 μg/ml.
The next test has as its system Candida albicans. As to the kind of experiment: Antifungal activity in 96-well microtiter plates. In kind it is cell-based. Further details: key: +++: high sensitivity, no hyphal growth; ++: medium sensitivity; +: low sensitivity; −: no effect. Conditions: 24 h.
The subject of test [13] is Rhizopus stolonifer var. stolonifer. Briefly: Antifungal activity in 96-well microtiter plates. The test is classed as cell-based. Further details: key: +++: high sensitivity, no hyphal growth; ++: medium sensitivity; +: low sensitivity; −: no effect. The conditions noted are these: 24 h.
The next test concerns Candida parapsilosis. Briefly: Antifungal activity in 96-well microtiter plates. Further details: key: +++: high sensitivity, no hyphal growth; ++: medium sensitivity; +: low sensitivity; −: no effect. The conditions noted are these: 24 h. In kind it is cell-based.
Test [14] concerns Sinorhizobium meliloti AK631. Briefly: CFU determination of Sinorhizobium meliloti. The conditions noted are these: for CFU % / CFU (colony/ml): 1 hr; for CFU determination (colony formation): 3 hours, 2-3×10^6 bacteria, FIG. 2B; for CFU: Sinorhizobium meliloti (AK631), untreated 10^7; for eradication of the bacteria: from the low dose of 20 μg/ml.
A further test concerns Aspergillus flavus. As to the kind of experiment: Antifungal activity in 96-well microtiter plates. The test is classed as cell-based. Further details: key: +++: high sensitivity, no hyphal growth; ++: medium sensitivity; +: low sensitivity; −: no effect. The conditions noted are these: 24 h.
The test system of test [15] is Pseudomonas syringae pv tomato DC3000. As to the kind of experiment: PI staining, broad spectrum activity. The conditions noted are these: 50 μg/ml. In kind it is cell-based.
Test [16] concerns Pseudomonas aeruginosa. As to the kind of experiment: CFU determination, broad spectrum activity. In kind it is cell-based. Conditions: 50 μg/ml, Pseudomonas aeruginosa, untreated 10^7.
Test [17] relates to Pseudomonas aeruginosa. Briefly: PI staining, broad spectrum activity. In kind it is cell-based. Conditions: 50 μg/ml.

Entries after “also recorded” stand apart in the source; their conditions may differ. Where two headings read alike, the source gives them in different places.

On to “NCR035: cationic NCR peptide (SFLGTFISSCKRDKDCPKLYGANFRCRKGTCVPPI; Peptide derived from Medicago truncatula)”, for which the “Fungal (hyphal) growth, sensitivity” value in the test with Candida crusei (25 μg/ml) is recorded as “+”; in the test on Candida crusei (50 μg/ml), “++”; in the test on Candida crusei (100 μg/ml), “++”; in the test on Fusarium graminearum (25 μg/ml), “−”; with Fusarium graminearum (50 μg/ml), “+”; in the test with Fusarium graminearum (100 μg/ml), “++”. In addition, the “Fungal (hyphal) growth, sensitivity” value in the test with Aspergillus niger (25 μg/ml) is “−”; in the test on Aspergillus niger (50 μg/ml), “−”; in the test on Aspergillus niger (100 μg/ml), “+”; with Candida albicans (25 μg/ml) it was “+”; in the test on Candida albicans (50 μg/ml) it was “++”; in the test on Candida albicans (100 μg/ml), “++”. For the same compound, the “Fungal (hyphal) growth, sensitivity” value in [13] (25 μg/ml) is reported as “−”; in test [13] (50 μg/ml) it was “+”; in [13] (100 μg/ml), “++”; in the test on Candida parapsilosis (25 μg/ml), “+”; in the test on Candida parapsilosis (50 μg/ml), “++”; with Candida parapsilosis (100 μg/ml) it was “++”. The entries for the “Fungal (hyphal) growth, sensitivity” value with Aspergillus flavus (25 μg/ml), in the test with Aspergillus flavus (50 μg/ml) and in the test on Aspergillus flavus (100 μg/ml) were “−”, “+” and “++”, respectively. For the same compound, the PI entry in test [1] was “PI: 78%”; in the test on Clavibacter michigense [5], “PI: 110%”; with Xanthomonas 2880 [7] it was “PI: 100%”; in test [10], “PI: 90%”; in the test with Staphylococcus aureus [11] it was “PI: 100%”; in the test on Bacillus subtilis [12], “PI: 100%”. Further, the PI result in test [15] is recorded as “PI: 100%”. The CFU entry in the test with Clavibacter michigense [2] is “CFU: 10^4”; in the test with Bacillus subtilis [3], “CFU: 10^3”; in [4], “CFU: 10^7”; in the test with Xanthomonas 2880 [6] it was “CFU: 10^2”; in the test on Staphylococcus aureus [8], “CFU: 10^6”; in test [9] it was “CFU: 10^5”. In addition, the CFU result in [14] (50 μg/ml) is recorded as “CFU: 0”. In addition, the “PI staining (PI uptake)” value in test [10] (listed as NCR35) is “provoked PI uptake; also recorded: comparable to heat killed bacteria or bacteria treated with polymyxin B”. Also, the CFU % in [14] (20 μg/ml) and in [14] (50 μg/ml) was 0% in each case. Also, the “CFU (colony/ml)” value worked out at 21000 colony/ml in test [14] (20 μg/ml) and 0 colony/ml in [14] (50 μg/ml). In addition, the “CFU determination (colony formation)” value in [14] (50 μg/ml) was “none formed colony”. Further, the “eradication of the bacteria” value in [14] is “able to eradicate the bacteria in less than an hour”.
Regarding “NCR224: anionic NCR peptide (KDLPFNICEKDEDCLEFCAHDKVAKCMLNICFCF; Peptide derived from Medicago truncatula)”, in test [14] (20 μg/ml), the CFU % was 130% and the “CFU (colony/ml)” value was 52900000 colony/ml. Moreover, in [14] (50 μg/ml), the CFU % stood at 48%, the “CFU (colony/ml)” value stood at 19600000 colony/ml and the “CFU determination (colony formation)” value was “reduced growth capacity”.
Consider `C[C@@H]1[C@H](O)[C@@H](C)/C=C/C=C/C=C/C=C/C=C/C=C/C=C/[C@H](O[C@@H]2O[C@H](C)[C@@H](O)[C@H](N)[C@@H]2O)C[C@@H]2O[C@](O)(C[C@@H](O)C[C@@H](O)[C@H](O)CC[C@@H](O)C[C@@H](O)CC(=O)O[C@H]1C)C[C@H](O)[C@H]2C(=O)O` [AMB, Amfotericin B, reference compound], for which the “Fungal (hyphal) growth, sensitivity” value in the test with Candida crusei (125 μg/ml) is listed as “+++”; with Fusarium graminearum (125 μg/ml) it was “++”; in the test on Aspergillus niger (125 μg/ml) it was “+++”; with Candida albicans (125 μg/ml), “+++”; in test [13] (125 μg/ml), “+++”; in the test with Candida parapsilosis (125 μg/ml), “+++”. Besides, in the test on Aspergillus flavus (125 μg/ml), the “Fungal (hyphal) growth, sensitivity” value is “+++”.
For “NCR055: cationic NCR peptide (VNDCIRIHCKDDFDCIENRLQVGCRLQREKPRCVNLVCRCLRR; Peptide derived from Medicago truncatula)”, the “Fungal (hyphal) growth, sensitivity” value with Candida crusei (50 μg/ml) was “+++”; with Candida crusei (100 μg/ml), “+++”; in the test on Fusarium graminearum (50 μg/ml), “−”; in the test with Fusarium graminearum (100 μg/ml), “++”; with Aspergillus niger (50 μg/ml), “++”; in the test on Aspergillus niger (100 μg/ml), “++”. For the same compound, the “Fungal (hyphal) growth, sensitivity” value in the test on Candida albicans (50 μg/ml) is reported as “+++”; in the test with Candida albicans (100 μg/ml) it was “+++”; in [13] (50 μg/ml) it was “++”; in test [13] (100 μg/ml), “+++”; in the test with Candida parapsilosis (50 μg/ml) it was “+++”; in the test on Candida parapsilosis (100 μg/ml), “+++”. Besides, the “Fungal (hyphal) growth, sensitivity” value in the test on Aspergillus flavus (50 μg/ml) was “+”; with Aspergillus flavus (100 μg/ml), “++”. The PI result in test [1] is listed as “PI: 80%”; with Pseudomonas aeruginosa [17], “PI: 10%”; in the test on Clavibacter michigense [5], “PI: 100%”; with Xanthomonas 2880 [7], “PI: 100%”; in test [10], “PI: 80%”; in the test with Staphylococcus aureus [11], “PI: 100%”. The PI result in the test on Bacillus subtilis [12] is reported as “PI: 100%”; in test [15] it was “PI: 85%”. Moreover, the CFU entry in the test with Clavibacter michigense [2] was “CFU: 0”; with Bacillus subtilis [3], “CFU: 0”; in test [4] it was “CFU: 0”; with Pseudomonas aeruginosa [16] it was “CFU: 10^5”; with Xanthomonas 2880 [6], “CFU: 10^4”; in [9], “CFU: 0”. The CFU entry in test [14] (50 μg/ml) is reported as “CFU: 0”. Further, the “PI staining (PI uptake)” value in test [10] (listed as NCR55) is given as “provoked PI uptake; also recorded: comparable to heat killed bacteria or bacteria treated with polymyxin B”. Further, the CFU % in test [14] (20 μg/ml) and in test [14] (50 μg/ml) was 0% throughout. In addition, the “CFU (colony/ml)” value in test [14] (20 μg/ml) came out at 1800 colony/ml; in [14] (50 μg/ml), 0 colony/ml. Also, in test [14] (50 μg/ml), the “CFU determination (colony formation)” value is reported as “none formed colony”. Further, the “eradication of the bacteria” value in test [14] is “able to eradicate the bacteria in less than an hour”.
For the compound “NCR057: cationic NCR peptide (RPVSCKDHYDCRRKVKIVGCIFPQEKPMCINSMCTCIREIVP; Peptide derived from Medicago truncatula)”, the PI result in test [1] is “PI: 60%”; in the test with Clavibacter michigense [5], “PI: 70%”; in the test with Xanthomonas 2880 [7], “PI: 65%”; in test [10], “PI: 35%”; in the test with Staphylococcus aureus [11] it was “PI: 47%”; in [15] it was “PI: 50%”. In addition, the CFU result was “CFU: 10^6” in the test on Bacillus subtilis [3]; “CFU: 10^6” in [4]; “CFU: 10^6” in the test with Staphylococcus aureus [8]; “CFU: 0” in test [9]; “CFU: 10^6” in test [14] (50 μg/ml). The CFU % in [14] (20 μg/ml) is on record as 148%; in test [14] (50 μg/ml), 68%. The “CFU (colony/ml)” value amounted to 9800000 colony/ml in test [14] (20 μg/ml) and 4500000 colony/ml in [14] (50 μg/ml). Moreover, in test [14] (50 μg/ml), the “CFU determination (colony formation)” value is listed as “reduced growth capacity”. In addition, in test [14], the “eradication of the bacteria” value is recorded as “able to eradicate the bacteria in less than an hour”.
